# Laboratory results taken from US5650154A (priority 1989, dated 1997).
# System: polyclonal serum raised against the native antigen
# Experiment: Reaction of peptide with polyclonal serum raised against the native antigen
# Format: binding, rabbits
# Settings: rabbit serum
sequence,measurement,value
"ELVALSNSITAQQMAMMAZASPA [Peptide (b), Tryptic peptide of the H. contortus antigen purified by HPLC]",reaction with polyclonal serum raised against the native antigen,reacts strongly
